From the supplement of paper PMC11208160 come the findings set out here.

This data set can be described thus: recombinant barcode read abundance after kanamycin selection (control-corrected) (log10(CPM+1)); higher = more efficient recombination; sequences stand for … in AGTGCAGAGAAAATCGGCCAGTTTTCTCTGCCTGCAGTCCGCATGCCGT…ATTTATGCAGCGGACTGCCTTTCTCCCAAAGTGATAAACCGGACAGTATCATGGACCGGTTTTCCCGGTAATCCGTATTTGCAAGGTTGGTTTCACT; site = the 11-nt target. Here is the method:
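Same pooled E. coli target screen (IS621 bridge recombinase, kanamycin selection, control-corrected CPM, mean of 2 biological replicates). Here the two core-binding nucleotides of the LTG and RTG of the bridge RNA target-binding loop are mutated. Target and donor CT cores are held constant, and the other 9 guide positions match the target. The target is read from the library oligo sequence. Molecule = full bridge RNA written as DNA: nt 1-80 from the library oligo, rest WT scaffold.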

Take “AGGCGGGCTTGGGTTCTAACCTGTTGCGGCG [AGGCGGGCTCC_LTGcore_CT_RTGcore_CG] (site AGGCGGGCTCC) (LTG core: CT, RTG core: CG)”: the “recombinant barcode read abundance (log10)” value was 0.146. The result for “AGGCGGGCTTGGGTTCTAACCTGTTGCGGGA [AGGCGGGCTCC_LTGcore_CT_RTGcore_TC] (site AGGCGGGCTCC) (LTG core: CT, RTG core: TC)” reads 0.253; that for “AGGCGGGCTTGGGTTCTAACCTGTTGCGGTC [AGGCGGGCTCC_LTGcore_CT_RTGcore_GA] (site AGGCGGGCTCC) (LTG core: CT, RTG core: GA)”, 0.246. The value for “AGGCGGGGATGGGTTCTAACCTGTTGCGGTC [AGGCGGGCTCC_LTGcore_GA_RTGcore_GA] (site AGGCGGGCTCC) (LTG core: GA, RTG core: GA)” was 0.133; that for “AGGCGGGGGTGGGTTCTAACCTGTTGCGGAG [AGGCGGGCTCC_LTGcore_GG_RTGcore_CT] (site AGGCGGGCTCC) (LTG core: GG, RTG core: CT)” was 0.101. The value for “AGGCGGGGTTGGGTTCTAACCTGTTGCGGAG [AGGCGGGCTCC_LTGcore_GT_RTGcore_CT] (site AGGCGGGCTCC) (LTG core: GT, RTG core: CT)” was 0.871; that for “AGGCGGGTATGGGTTCTAACCTGTTGCGGTA [AGGCGGGCTCC_LTGcore_TA_RTGcore_TA] (site AGGCGGGCTCC) (LTG core: TA, RTG core: TA)” was 0.364; that for “AGGCGGGTTTGGGTTCTAACCTGTTGCGGAA [AGGCGGGCTCC_LTGcore_TT_RTGcore_TT] (site AGGCGGGCTCC) (LTG core: TT, RTG core: TT)” was 0.299. In the case of “AGGCGGTAATGGGTTCTAACCTGTTGCTTAG [AGGCGGTCTAA_LTGcore_AA_RTGcore_CT] (site AGGCGGTCTAA) (LTG core: AA, RTG core: CT)”, the “recombinant barcode read abundance (log10)” value was 0.371. The result for “AGGCGGTAATGGGTTCTAACCTGTTGCTTTT [AGGCGGTCTAA_LTGcore_AA_RTGcore_AA] (site AGGCGGTCTAA) (LTG core: AA, RTG core: AA)” reads 0.0996; that for “AGGCGGTCTTGGGTTCTAACCTGTTGCTTCC [AGGCGGTCTAA_LTGcore_CT_RTGcore_GG] (site AGGCGGTCTAA) (LTG core: CT, RTG core: GG)”, 0.0963; that for “AGGCGGTCTTGGGTTCTAACCTGTTGCTTGT [AGGCGGTCTAA_LTGcore_CT_RTGcore_AC] (site AGGCGGTCTAA) (LTG core: CT, RTG core: AC)”, 0.127. The value for “AGGCGGTCTTGGGTTCTAACCTGTTGCTTTT [AGGCGGTCTAA_LTGcore_CT_RTGcore_AA] (site AGGCGGTCTAA) (LTG core: CT, RTG core: AA)” was 0.0668; that for “AGGCGGTGCTGGGTTCTAACCTGTTGCTTAG [AGGCGGTCTAA_LTGcore_GC_RTGcore_CT] (site AGGCGGTCTAA) (LTG core: GC, RTG core: CT)” was 0.419. The result for “AGGCGGTGTTGGGTTCTAACCTGTTGCTTAG [AGGCGGTCTAA_LTGcore_GT_RTGcore_CT] (site AGGCGGTCTAA) (LTG core: GT, RTG core: CT)” reads 0.203; that for “AGGCGGTTGTGGGTTCTAACCTGTTGCTTAG [AGGCGGTCTAA_LTGcore_TG_RTGcore_CT] (site AGGCGGTCTAA) (LTG core: TG, RTG core: CT)”, 0.113. With “AGTCTTAAGTGGGTTCTAACCTGTTGCCAAG [AGTCTTACTTG_LTGcore_AG_RTGcore_CT] (site AGTCTTACTTG) (LTG core: AG, RTG core: CT)”, the “recombinant barcode read abundance (log10)” value amounted to 0.102.

For “AGTCTTAATTGGGTTCTAACCTGTTGCCAAT [AGTCTTACTTG_LTGcore_AT_RTGcore_AT] (site AGTCTTACTTG) (LTG core: AT, RTG core: AT)”, the “recombinant barcode read abundance (log10)” value turned out to be 0.0434.

As for “AGTCTTACCTGGGTTCTAACCTGTTGCCAGG [AGTCTTACTTG_LTGcore_CC_RTGcore_CC] (site AGTCTTACTTG) (LTG core: CC, RTG core: CC)”, the “recombinant barcode read abundance (log10)” value was 0.117. The result for “AGTCTTACTTGGGTTCTAACCTGTTGCCACA [AGTCTTACTTG_LTGcore_CT_RTGcore_TG] (site AGTCTTACTTG) (LTG core: CT, RTG core: TG)” reads 0.032. The result for “AGTCTTATATGGGTTCTAACCTGTTGCCAAG [AGTCTTACTTG_LTGcore_TA_RTGcore_CT] (site AGTCTTACTTG) (LTG core: TA, RTG core: CT)” reads 0.0306; that for “AGTCTTATTTGGGTTCTAACCTGTTGCCAAA [AGTCTTACTTG_LTGcore_TT_RTGcore_TT] (site AGTCTTACTTG) (LTG core: TT, RTG core: TT)”, 0.0474; that for “ATGCTTTAATGGGTTCTAACCTGTTGCCTAG [ATGCTTTCTAG_LTGcore_AA_RTGcore_CT] (site ATGCTTTCTAG) (LTG core: AA, RTG core: CT)”, 0.0699. As for “ATGCTTTATTGGGTTCTAACCTGTTGCCTAG [ATGCTTTCTAG_LTGcore_AT_RTGcore_CT] (site ATGCTTTCTAG) (LTG core: AT, RTG core: CT)”, the “recombinant barcode read abundance (log10)” value came out at 0.162. The value for “ATGCTTTCTTGGGTTCTAACCTGTTGCCTAG [ATGCTTTCTAG_LTGcore_CT_RTGcore_CT] (site ATGCTTTCTAG) (LTG core: CT, RTG core: CT)” was 0.384; that for “ATGCTTTCTTGGGTTCTAACCTGTTGCCTCT [ATGCTTTCTAG_LTGcore_CT_RTGcore_AG] (site ATGCTTTCTAG) (LTG core: CT, RTG core: AG)” was 0.0217. The result for “ATGCTTTCTTGGGTTCTAACCTGTTGCCTGA [ATGCTTTCTAG_LTGcore_CT_RTGcore_TC] (site ATGCTTTCTAG) (LTG core: CT, RTG core: TC)” reads 0.0714; that for “ATGCTTTGCTGGGTTCTAACCTGTTGCCTAG [ATGCTTTCTAG_LTGcore_GC_RTGcore_CT] (site ATGCTTTCTAG) (LTG core: GC, RTG core: CT)”, 0.0505; that for “ATGCTTTGGTGGGTTCTAACCTGTTGCCTCC [ATGCTTTCTAG_LTGcore_GG_RTGcore_GG] (site ATGCTTTCTAG) (LTG core: GG, RTG core: GG)”, 0.235. The value for “ATGTCCCACTGGGTTCTAACCTGTTGCTCGT [ATGTCCCCTGA_LTGcore_AC_RTGcore_AC] (site ATGTCCCCTGA) (LTG core: AC, RTG core: AC)” was 0.183; that for “ATGTCCCAGTGGGTTCTAACCTGTTGCTCAG [ATGTCCCCTGA_LTGcore_AG_RTGcore_CT] (site ATGTCCCCTGA) (LTG core: AG, RTG core: CT)” was 0.0996; that for “ATGTCCCATTGGGTTCTAACCTGTTGCTCAG [ATGTCCCCTGA_LTGcore_AT_RTGcore_CT] (site ATGTCCCCTGA) (LTG core: AT, RTG core: CT)” was 0.234. With “ATGTCCCCTTGGGTTCTAACCTGTTGCTCCG [ATGTCCCCTGA_LTGcore_CT_RTGcore_CG] (site ATGTCCCCTGA) (LTG core: CT, RTG core: CG)”, the “recombinant barcode read abundance (log10)” value came out at 0.249.

Consider “ATGTCCCCTTGGGTTCTAACCTGTTGCTCGC [ATGTCCCCTGA_LTGcore_CT_RTGcore_GC] (site ATGTCCCCTGA) (LTG core: CT, RTG core: GC)”, for which the “recombinant barcode read abundance (log10)” value worked out at 0.327. The result for “ATGTCCCCTTGGGTTCTAACCTGTTGCTCGG [ATGTCCCCTGA_LTGcore_CT_RTGcore_CC] (site ATGTCCCCTGA) (LTG core: CT, RTG core: CC)” reads 0.29; that for “ATGTCCCGATGGGTTCTAACCTGTTGCTCAG [ATGTCCCCTGA_LTGcore_GA_RTGcore_CT] (site ATGTCCCCTGA) (LTG core: GA, RTG core: CT)”, 0.647.

Turning to “ATGTCCCGGTGGGTTCTAACCTGTTGCTCAG [ATGTCCCCTGA_LTGcore_GG_RTGcore_CT] (site ATGTCCCCTGA) (LTG core: GG, RTG core: CT)”, the “recombinant barcode read abundance (log10)” value is 0.294. The result for “ATGTCCCGTTGGGTTCTAACCTGTTGCTCAC [ATGTCCCCTGA_LTGcore_GT_RTGcore_GT] (site ATGTCCCCTGA) (LTG core: GT, RTG core: GT)” reads 0.0823; that for “ATGTCCCTCTGGGTTCTAACCTGTTGCTCAG [ATGTCCCCTGA_LTGcore_TC_RTGcore_CT] (site ATGTCCCCTGA) (LTG core: TC, RTG core: CT)”, 0.209; that for “ATGTCCCTGTGGGTTCTAACCTGTTGCTCAG [ATGTCCCCTGA_LTGcore_TG_RTGcore_CT] (site ATGTCCCCTGA) (LTG core: TG, RTG core: CT)”, 0.0616. The value for “ATGTCCCTGTGGGTTCTAACCTGTTGCTCCA [ATGTCCCCTGA_LTGcore_TG_RTGcore_TG] (site ATGTCCCCTGA) (LTG core: TG, RTG core: TG)” was 0.0547.
